“And” between values parts separate entries of the source, which are not always exact repeats. Identical values can stand only once. Like-named read-outs stand apart in the source and are kept apart here.
Tests used:
influenza A/HK/68 [1] = tested on: influenza A/HK/68; parameters: species or system ICR mice; details: mouse, in vivo
tetanus toxoid [2] = details: mouse, in vivo
[3] = Fever response in rabbits (pyrogenicity); type: in vivo
Procedure: The AGP compounds were also evaluated for their tendency to induce a fever response in rabbits. Each compound was formulated in 10% (v/v) ethanol/water solution at 100 mg/ml, then diluted with D5W to the desired concentration. The material was injected at 3 ml/kg body weight into 3 rabbits. The rise in core temperature of the rabbits was recorded.

E.G7 (OVA) cells = details: s.c. 25 μg OVA in AGP preparation, spleen cells 21 days later
[4] = tested on: hepatitis B surface antigen (HBsAg); details: for % Cytotoxicity (d16, post 2°): HBsAg + 10 μg AGP-AF intranasally; for % Cytotoxicity (d8, post 3°): intranasal HBsAg + 10 μg AGP-AF
influenza A/HK/68 [5] = type: in vivo, BALB/c mice; details: mouse, in vivo
influenza A/HK/68 [6] = type: in vivo, ICR mice; details: mouse, in vivo
tetanus toxoid [7] = details: mouse, in vivo, sc
tetanus toxoid [8] = tested on: tetanus toxoid; parameters: species or system BFD1 (C57B1/6X DBA/2) female mice; details: mouse, in vivo
influenza A/HK/68 [9] = experiment: Second intranasal influenza vaccine experiment with aqueous AGP and MPL formulations: vaginal, tracheal wash and serum titers, protection; type: in vivo, BABL/c mice; details: mouse, in vivo
[10] = tested on: hepatitis B surface antigen (HBsAg); experiment: Vaginal wash anti-HBsAg antibody after intranasal HBsAg + AGP-AF; type: in vivo, BALB/c mice; details: 10 days after the booster immunization; intranasal HBsAg + 10 μg AGP-AF
Text: Vaginal samples were collected 10 days after the booster immunization and assayed for anti-HBsAg antibody.

IL-1β = experiment: Cytokine induction in human whole blood ex vivo culture: IL-1β (ELISA); type: cell-based; details: 4 hr, Table 17
Method in brief: (§1)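 Compounds in 10% EtOH-water added at 1:10 to human whole blood, 4 hr at 37° C with rotation; RPMI-treated controls. After PBS dilution and centrifugation, supernatant TNF-α and IL-1β measured by ELISA.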

TNF-α = experiment: Cytokine induction in human whole blood ex vivo culture: TNF-α (ELISA); type: cell-based; details: 4 hr, Table 17
Method in brief: as §1

ovalbumin = experiment: Stimulation of antiovalbumin antibody production; type: in vivo, BDF1 female mice; details: 50 μg AGP + 50 μg ovalbumin; second immunization day 21; bled 14 days after second injection
Procedure: BDF1 female mice (8 per group) were immunized with 0.2 ml of emulsions containing 50 μg of the AGPs +50 μg of ovalbumin. A second immunization was administered 21 days post primary. Each mouse was bled 14 days after the second injection.

[11] = tested on: hepatitis B surface antigen (HBsAg); experiment: Serum anti-HBsAg antibody titers after intranasal HBsAg + AGP-AF (ELISA); type: in vivo, BALB/c mice; details: for Anti HBsAg Titer^−1 IgG1 / Anti HBsAg Titer^−1 IgG2a: K = 10^3
[12] = day 22 post 2°, HBsAg + 10 μg AGP-AF intranasally
[13] = serum, day 21 post 3°, intranasal HBsAg + 10 μg AGP-AF

Substance: N-[(R)-3-Decanoyloxytetradecanoyl]-O-[2-deoxy-4-O-phosphono-2-[(R)-3-decanoyloxytetradecanoylamino]-3-O-[(R)-3-decanoyloxytetradecanoyl]-β-D-glucopyranosyl]-L-serine Triethylammonium Salt [B15]
- Anti-influenza Titer^−1 Total IgG (influenza A/HK/68 [1]): 6400
- Percent Survival (influenza A/HK/68 [1]): 50%
- Anti-Tetanus Toxoid Titer^−1 Fecal Extract IgG (tetanus toxoid [2]): 50 and 100
- Anti-Tetanus Toxoid Titer^−1 Vaginal Wash IgA (tetanus toxoid [2]): 6400
- Anti-Tetanus Toxoid Titer^−1 Vaginal Wash IgG (tetanus toxoid [2]): 400 and 800
- PYROGENICITY Total Rise ° C., 3 rabbits ([3]; 10 ug/kg, cumulative rise ≥1.5 degree in three rabbits is considered pyrogenic): 3.1 °C
- PY[…] ([3]; rabbits): <0.06 µg/kg
- % Cytotoxicity (E.G7 (OVA) cells; E:T 12.5:1): 30%
- % Cytotoxicity (E.G7 (OVA) cells; E:T 25:1): 49%
- % Cytotoxicity (E.G7 (OVA) cells; E:T 50:1): 58%
- % Cytotoxicity (d16, post 2°) ([4]; E/T 6.25:1): 4%
- % Cytotoxicity (d8, post 3°) ([4]; E/T 6.25:1): 16%
- % Cytotoxicity (d16, post 2°) ([4]; E/T 12.5:1): 4%
- % Cytotoxicity (d8, post 3°) ([4]; E/T 12.5:1): 25%
- % Cytotoxicity (d16, post 2°) ([4]; E/T 25:1): 5%
- % Cytotoxicity (d8, post 3°) ([4]; E/T 25:1): 42%
- % Cytotoxicity (d16, post 2°) ([4]; E/T 50:1): 13%
- % Cytotoxicity (d8, post 3°) ([4]; E/T 50:1): 56%
- Anti-influenza Titer^−1 IgG1 (influenza A/HK/68 [5]): 3200
- Anti-influenza Titer^−1 IgG2a (influenza A/HK/68 [5]): 3200
- Anti-influenza Titer^−1 IgG2b (influenza A/HK/68 [5]): 400
- Anti-influenza Titer^−1 Total IgG (influenza A/HK/68 [5]): 1600
- Percent Survival (influenza A/HK/68 [5]): 100%
- Percent Survival (influenza A/HK/68 [6]): 70%
- Titer^−1 IgG1 (influenza A/HK/68 [6]): 200
- Titer^−1 IgG2a (influenza A/HK/68 [6]): 3200
- Titer^−1 IgG2b (influenza A/HK/68 [6]): 6400
- Titer^−1 Total IgG (influenza A/HK/68 [6]): 3200
- Anti-tetanus toxoid IgM T/C (tetanus toxoid [7]): 4.0 and 2.7
- Anti-tetanus toxoid Total Ig T/C (tetanus toxoid [7]): 144.5
- Anti-tetanus toxoid Total Ig Titer (tetanus toxoid [7]): 34,400
- Anti-tetanus toxoid Total IgG T/C (tetanus toxoid [7]): 18.85
- Anti-tetanus toxoid Total IgG Titer (tetanus toxoid [7]): 121,600
- IgG1 T/C Ratio (tetanus toxoid [8]): 4.1 and 4.5 and 5.5
- IgM T/C (tetanus toxoid [8]): 3.14 and 2.29 and 2.86 and 1.71 and 1.57
- Total Ig T/C (tetanus toxoid [8]): 233.88 and 181.91 and 170.10 and 248.06 and 166.56
- Total Ig T/C Ratio (tetanus toxoid [8]): 3.3 and 5.8 and 5.3
- Mucosal IgA Response TW (influenza A/HK/68 [9]): 11.1
- Mucosal IgA Response VW (influenza A/HK/68 [9]): 10.9
- Percent Protection (influenza A/HK/68 [9]): 100%
- Serum IgG Titers (influenza A/HK/68 [9]): 19.1
- mucosal adjuvant activity (in words) (influenza A/HK/68 [9]): act as mucosal adjuvants causing the production of IgA at two mucosal sites
- Vaginal Wash Anti-HBsAg Titer^−1 IgA [10]: 3200
- Vaginal Wash Anti-HBsAg Titer^−1 IgG [10]: 50
- IL-1β (IL-1β; Dosage 100 ng/ml): 51.6 pg/mL
- IL-1β (IL-1β; Dosage 500 ng/ml): 104 pg/mL
- IL-1β (IL-1β; Dosage 1000 ng/ml): 94.4 pg/mL
- IL-1β (IL-1β; Dosage 5000 ng/ml): 126 pg/mL
- IL-1β (IL-1β; Dosage 10,000 ng/ml): 153 pg/mL
- TNF-α (TNF-α; Dosage 100 ng/ml): 133 pg/mL
- TNF-α (TNF-α; Dosage 500 ng/ml): 183 pg/mL
- TNF-α (TNF-α; Dosage 1000 ng/ml): 209 pg/mL
- TNF-α (TNF-α; Dosage 5000 ng/ml): 280 pg/mL
- TNF-α (TNF-α; Dosage 10,000 ng/ml): 320 pg/mL
- Anti-ovalbumin IgG1 T/C (ovalbumin): 0.6
- Anti-ovalbumin IgG1 Titer (ovalbumin): 950
- Anti-ovalbumin IgG2a T/C (ovalbumin): 0.3
- Anti-ovalbumin IgG2a Titer (ovalbumin): 113
- Anti-ovalbumin IgG2b T/C (ovalbumin): 16.7
- Anti-ovalbumin IgG2b Titer (ovalbumin): 3963
- Anti-ovalbumin IgM T/C (ovalbumin): 2.3
- Anti-ovalbumin IgM Titer (ovalbumin): 438
- Anti-ovalbumin Total Ig T/C (ovalbumin): 4.1
- Anti-ovalbumin Total Ig Titer (ovalbumin): 925
- Anti HBsAg Titer^−1 IgA [11, 12]: 6,400
- Anti HBsAg Titer^−1 IgG1 [11, 12]: 256K
- Anti HBsAg Titer^−1 IgG2a [11, 12]: 500K
- Anti HBsAg Titer^−1 IgG1 [11, 13]: 2000K
- Anti HBsAg Titer^−1 IgG2a [11, 13]: 2000K
- Anti HBsAg Titer^−1 IgA [11, 13]: 25,600

Reference: patent publication US7541020B2, “Aminoalkyl glucosaminide phosphate compounds and their use as adjuvants and immunoeffectors” (priority 1997, dated 2009)
